Results published in EPA's ToxRefDB 2.

Legend:
rat [1] = settings: Fertility (Segment I), sprague dawley, Oral, Gavage/Intubation, dose end: 7 GD
rat [2] = settings: Fertility (Segment I), sprague dawley, Oral, Gavage/Intubation, dose end: 7 GD; remark: listed apart in the source
rabbit [3] = settings: Prenatal developmental toxicity study; new zealand white; Oral; Gavage/Intubation; dose end: 19 GD; group: maternal; systemic / in life observation / body weight / body weight gain
dog [4] = settings: Sub-acute repeat dose toxicity; beagle; Oral; Capsule; dose end: 1 month; group: systemic; systemic / clinical chemistry / triglycerides / triglycerides
rabbit [5] = settings: Prenatal developmental toxicity study; new zealand white; Oral; Gavage/Intubation; dose end: 19 GD; group: maternal; systemic / in life observation / body weight / body weight + systemic / in life observation / body weight / body weight gain + systemic / in…
rat [6] = settings: Fertility (Segment I), sprague dawley, Oral, Gavage/Intubation, dose end: 2 week, group: parental
rat [7] = settings: Sub-acute repeat dose toxicity, sprague dawley, Oral, Gavage/Intubation, dose end: 31 day, group: systemic
rat [8] = settings: Chronic toxicity; sprague dawley; Oral; Gavage/Intubation; dose end: 6 month; group: systemic; systemic / clinical chemistry / sodium / sodium + systemic / clinical chemistry / bilirubin / total bilirubin + systemic / clinical …
rat [9] = settings: Prenatal developmental toxicity study, sprague dawley, Oral, Gavage/Intubation, dose end: 17 GD
rat [10] = settings: Prenatal developmental toxicity study, sprague dawley, Oral, Gavage/Intubation, dose end: 17 GD, group: maternal
rabbit [11] = settings: Prenatal developmental toxicity study, Dermal, Topical, dose end: 16 GD, group: maternal
mouse [12] = settings: Prenatal developmental toxicity study, CD-1, Dermal, Topical, dose end: 13 GD, group: maternal
dog [13] = settings: Chronic toxicity; beagle; Oral; Feed; dose end: 52 week; group: systemic; systemic / organ weight / thyroid gland / absolute + systemic / organ weight / thyroid gland / relative to body weight + systemic / …
dog [14] = settings: Chronic toxicity, beagle, Oral, Feed, dose end: 8 week, group: systemic
rat [15] = settings: Prenatal developmental toxicity study, sprague dawley, Oral, Gavage/Intubation, dose end: 15 GD
rat [16] = settings: Subchronic oral toxicity in rodents, sprague dawley, Feed, dose end: 90 day, group: systemic
rat [17] = settings: Combined chronic toxicity/carcinogenicity, sprague dawley, Oral, Feed, dose end: 104 week, group: systemic
dog [18] = settings: Subchronic oral toxicity in nonrodent, beagle, Feed, dose end: 13 week, group: systemic, systemic / in life observation / body weight / body weight + systemic / in life observation / body weight / body weight gain + systemic / in…
mouse [19] = settings: Carcinogenicity; cd1; Oral; Feed; dose end: 102 week; group: systemic; systemic / organ weight / liver / absolute + systemic / organ weight / liver / relative to body weight
mouse [20] = settings: Carcinogenicity, cd1, Oral, Feed, dose end: 8 week, group: systemic
rat [21] = settings: Carcinogenicity, fischer, Oral, Feed, dose end: 103 week, group: systemic
mouse [22] = settings: Subchronic oral toxicity in rodents, b6c3f1, Feed, dose end: 13 week, group: systemic
mouse [23] = settings: Carcinogenicity, b6c3f1, Oral, Feed, dose end: 103 week, group: systemic
rat [24] = settings: Subchronic oral toxicity in rodents, fischer, Feed, dose end: 13 week, group: systemic
[25] = group: maternal, reproductive / reproductive performance / estrous cycle / abnormal + reproductive / reproductive performance / estrous cycle / corpora lutea…
[26] = group: parental, systemic / in life observation / clinical signs / fur (altered appearance) + systemic / in life observation / clinical signs / salivation
[27] = group: parental, systemic / in life observation / clinical signs / fur (altered appearance) + systemic / in life observation / clinical signs / salivation + …
[28] = group: parental, systemic / in life observation / clinical signs / piloerection
[29] = group: parental, systemic / in life observation / clinical signs / piloerection + systemic / in life observation / body weight / body weight + systemic / in …
[30] = systemic / in life observation / body weight / body weight + systemic / in life observation / body weight / body weight gain + systemic / in…
[31] = systemic / clinical chemistry / albumin / albumin + systemic / clinical chemistry / phosphorus / phosphorus + systemic / clinical chemistry…
[32] = systemic / hematology / reticulocyte / reticulocyte + systemic / pathology microscopic / lung / histiocytosis + systemic / hematology / …
[33] = group: developmental, systemic / in life observation / body weight / fetal weight
[34] = group: maternal, systemic / in life observation / clinical signs / piloerection
[35] = reproductive / reproductive performance / postimplantation loss / postimplantation loss + systemic / in life observation / body weight / …
[36] = systemic / in life observation / body weight / body weight gain
[37] = systemic / in life observation / body weight / body weight gain + systemic / in life observation / clinical signs / erythema + systemic / in…
[38] = systemic / clinical chemistry / alanine aminotransferase (alt/sgpt) / alanine aminotransferase (alt/sgpt) + systemic / clinical chemistry / …
[39] = group: developmental, developmental / developmental malformation / bone / short
[40] = group: maternal, systemic / in life observation / mortality / mortality + reproductive / reproductive performance / resorptions / resorptions
[41] = systemic / clinical chemistry / albumin-globulin ratio / albumin-globulin ratio + systemic / clinical chemistry / phosphorus / phosphate
[42] = systemic / hematology / erythrocyte (rbc) count differential / erythrocyte (rbc) + systemic / hematology / leukocyte (wbc) count …
[43] = systemic / clinical chemistry / alanine aminotransferase (alt/sgpt) / alanine aminotransferase (alt/sgpt)
[44] = systemic / organ weight / liver / relative to body weight
[45] = systemic / organ weight / liver / relative to body weight + systemic / clinical chemistry / alkaline phosphatase (alp/alk) / alkaline …
[46] = systemic / in life observation / body weight / body weight gain + systemic / pathology microscopic / eye / cataract + systemic / pathology …
[47] = systemic / in life observation / mortality / mortality + systemic / pathology microscopic / adrenal gland / vacuolization cytoplasmic + …
[48] = systemic / pathology microscopic / uterus / hyperplasia
[49] = systemic / pathology microscopic / bone marrow / myelofibrosis + systemic / pathology microscopic / mammary gland / cyst + systemic / …
[50] = systemic / pathology microscopic / liver / adenoma + systemic / pathology microscopic / pituitary gland / adenoma + systemic / pathology …
[51] = systemic / in life observation / body weight / body weight + systemic / pathology microscopic / bone / osteopetrosis + systemic / pathology …
[52] = systemic / pathology microscopic / bone / osteopetrosis + systemic / in life observation / body weight / body weight

## COc1ccc2cc(S(=O)(=O)N[C@H](CC(=O)N[C@H](Cc3ccc(CN4[C@H](C)CCC[C@@H]4C)cc3)C(=O)N(C)C(C)C)c3ccc4c(c3)OCO4)ccc2c1.Cl
Rat [1]; [25]
  LEL: 180 mg/kg/day
  LOAEL: > 180 mg/kg/day
  NEL: 60 mg/kg/day
  NOAEL: ≥ 180 mg/kg/day
Rat [1]; [26]
  LEL: 20 mg/kg/day
  NEL: < 20 mg/kg/day
Rat [1]; [27]
  LOAEL: > 180 mg/kg/day
  NOAEL: ≥ 180 mg/kg/day
Rat [2]; [25]
  LEL: 180 mg/kg/day
  LOAEL: 180 mg/kg/day
  NEL: 60 mg/kg/day
  NOAEL: 60 mg/kg/day
Rat [2]; [28]
  LEL: 20 mg/kg/day
  NEL: < 20 mg/kg/day
Rat [2]; [29]
  LOAEL: 180 mg/kg/day
  NOAEL: 60 mg/kg/day
Rabbit [3]
  LEL: 120 mg/kg/day
  LOAEL: > 120 mg/kg/day
  NEL: 60 mg/kg/day
  NOAEL: ≥ 120 mg/kg/day
Dog [4]
  LEL: 10 mg/kg/day
  LOAEL: 10 mg/kg/day
  NEL: < 10 mg/kg/day
  NOAEL: < 10 mg/kg/day
Rabbit [5]
  LEL: 100 mg/kg/day
  LOAEL: 100 mg/kg/day
  NEL: 50 mg/kg/day
  NOAEL: 50 mg/kg/day
Rat [6]; [30]
  LOAEL: 150 mg/kg/day
  NEL: 20 mg/kg/day
  NOAEL: 60 mg/kg/day
Rat [6]; systemic / in life observation / clinical signs / salivation
  LEL: 60 mg/kg/day
Rat [7]; [31]
  LOAEL: 60 mg/kg/day
  NOAEL: 20 mg/kg/day
Rat [7]; [32]
  LEL: 20 mg/kg/day
  NEL: < 20 mg/kg/day
Rat [8]
  LEL: 10 mg/kg/day
  LOAEL: > 100 mg/kg/day
  NEL: < 10 mg/kg/day
  NOAEL: ≥ 100 mg/kg/day
Rat [9]; [33]
  LEL: 120 mg/kg/day
  LOAEL: 120 mg/kg/day
  NEL: 60 mg/kg/day
  NOAEL: 60 mg/kg/day
Rat [9]; [34]
  LEL: 30 mg/kg/day
  NEL: < 30 mg/kg/day
Rat [9]; group: maternal, systemic / in life observation / clinical signs / piloerection + systemic / in life observation / food consumption / food consumption
  LOAEL: 60 mg/kg/day
Rat [9]; group: maternal, systemic / in life observation / clinical signs / piloerection + systemic / in life observation / food consumption / food consumption + …
  NOAEL: 30 mg/kg/day
Rat [10]; reproductive / reproductive performance / postimplantation loss / postimplantation loss
  LEL: 60 mg/kg/day
Rat [10]; [35]
  LOAEL: > 180 mg/kg/day
  NEL: 20 mg/kg/day
  NOAEL: ≥ 180 mg/kg/day

## CCCCCCCCCCC(C)c1ccc(S(=O)(=O)O)cc1 (configuration not stated) [Alkylbenzenesulfonate, linear]
Rabbit [11]; [36]
  LEL: 9 mg/kg/day
Rabbit [11]; [37]
  LOAEL: > 90 mg/kg/day
  NEL: 0.9 mg/kg/day
  NOAEL: ≥ 90 mg/kg/day
Mouse [12]; reproductive / offspring survival early / dead fetuses / dead fetuses + systemic / in life observation / clinical signs / irritability
  LEL: 50 mg/kg/day
Mouse [12]; systemic / in life observation / body weight / body weight gain + systemic / in life observation / clinical signs / erythema + reproductive…
  LOAEL: 500 mg/kg/day
Mouse [12]; [37]
  NEL: 5 mg/kg/day
  NOAEL: 50 mg/kg/day

## C=CCC1=C(C)[C@@H](OC(=O)[C@@H]2[C@@H](C=C(C)C)C2(C)C)CC1=O [S-Bioallethrin]
Dog [13]
  LEL: 2.7 mg/kg/day
  LOAEL: 13.7 mg/kg/day
  NEL: < 2.7 mg/kg/day
  NOAEL: 2.7 mg/kg/day
Dog [14]; [38]
  LOAEL: 63.2 mg/kg/day
  NEL: 4.5 mg/kg/day
  NOAEL: 19.5 mg/kg/day
Dog [14]; systemic / organ weight / liver / absolute + systemic / organ weight / liver / relative to body weight
  LEL: 19.5 mg/kg/day
Rat [15]; [39]
  LEL: 50 mg/kg/day
  LOAEL: 50 mg/kg/day
  NEL: < 50 mg/kg/day
  NOAEL: < 50 mg/kg/day
Rat [15]; group: maternal, systemic / in life observation / mortality / mortality
  LOAEL: 195 mg/kg/day
Rat [15]; [40]
  LEL: 195 mg/kg/day
  NEL: 125 mg/kg/day
  NOAEL: 125 mg/kg/day
Rat [16]; [41]
  LEL: 20.6 mg/kg/day
  NEL: < 20.6 mg/kg/day
Rat [16]; [42]
  LOAEL: 36.6 mg/kg/day
  NOAEL: 18.5 mg/kg/day
Rat [17]; [43]
  LEL: 7.2 mg/kg/day
  LOAEL: 82.6 mg/kg/day
  NEL: < 7.2 mg/kg/day
Rat [17]; systemic / clinical chemistry / alanine aminotransferase (alt/sgpt) / alanine aminotransferase (alt/sgpt) + systemic / pathology microscopic…
  NOAEL: 27 mg/kg/day
Dog [18]
  LEL: 90.5 mg/kg/day
  LOAEL: 90.5 mg/kg/day
  NEL: 38.5 mg/kg/day
  NOAEL: 38.5 mg/kg/day
Mouse [19]
  LEL: 214 mg/kg/day
  LOAEL: > 214 mg/kg/day
  NEL: 41.9 mg/kg/day
  NOAEL: ≥ 214 mg/kg/day
Mouse [20]; [44]
  LEL: 420 mg/kg/day
  LOAEL: 420 mg/kg/day
Mouse [20]; [45]
  NEL: 229 mg/kg/day
  NOAEL: 229 mg/kg/day

## C[C@H]1CCCC(=O)CCC/C=C/c2cc(O)cc(O)c2C(=O)O1 [Zearalenone]
Rat [21]; [36]
  LOAEL: 2.5 mg/kg/day
Rat [21]; [46]
  LEL: 1.25 mg/kg/day
  NEL: < 1.25 mg/kg/day
  NOAEL: 1.25 mg/kg/day
Mouse [22]; [47]
  LOAEL: > 450 mg/kg/day
  NOAEL: ≥ 450 mg/kg/day
Mouse [22]; [48]
  LEL: 4.5 mg/kg/day
  NEL: < 4.5 mg/kg/day
Mouse [23]; [49]
  LEL: 7.5 mg/kg/day
  NEL: < 7.5 mg/kg/day
Mouse [23]; [50]
  LOAEL: > 15 mg/kg/day
  NOAEL: ≥ 15 mg/kg/day
Rat [24]; [51]
  LOAEL: > 150 mg/kg/day
  NOAEL: ≥ 150 mg/kg/day
Rat [24]; [52]
  LEL: 1.5 mg/kg/day
  NEL: < 1.5 mg/kg/day
